The subject of data set [1] is Blumeria graminis f·sp. hordei. Kind of data set: Blumeria graminis test (barley) / protective. Type of data set: in vivo. As to conditions: 1000 ppm active ingredient, evaluated 7 days after inoculation. An excerpt: (§1) Zur Herstellung einer zweckmäßigen Wirkstoffzubereitung vermischt man 1 Gewichtsteil Wirkstoff mit den angegebenen Mengen Lösungsmittel und Emulgator und verdünnt das Konzentrat mit Wasser auf die gewünschte Konzentration.
Zur Prüfung auf protektive Wirksamkeit besprüht man junge Pflanzen mit der Wirkstoffzubereitung in der angegebenen Aufwandmenge.
Nach Antrocknen des Spritzbelages werden die Pflanzen mit Sporen von Blumeria graminis f·sp. hordei bestäubt.
Die Pflanzen werden in einem Gewächshaus bei einer Temperatur von ca. 18°C und einer relativen Luftfeuchtigkeit von ca. 80 % aufgestellt, um die Entwicklung von Mehltaupusteln zu begünstigen.
7 Tage nach der Inokulation erfolgt die Auswertung. Dabei bedeutet 0 % ein Wirkungsgrad, der demjenigen der Kontrolle entspricht, während ein Wirkungsgrad von 100 % bedeutet, dass kein Befall beobachtet wird.

The next data set deals with Botrytis cinerea. As to the kind of experiment: Botrytis test (cucumber) / protective. As to conditions: 500ppm active ingredient, evaluated 5-6 days after inoculation. Format: in vivo. Here is the method: as §1
Zur Prüfung auf protektive Wirksamkeit bespritzt man junge Gurkenpflanzen mit der Wirkstoffzubereitung in der angegebenen Aufwandmenge. 1 Tag nach der Behandlung werden die Pflanzen mit einer Sporensuspension von Botrytis cinerea inokuliert und stehen dann 48h bei 100% rel. Feuchte und 22°C. Anschließend stehen die Pflanzen bei 96% rel. Luftfeuchtigkeit und einer Temperatur von 14°C.
5-6 Tage nach der Inokulation erfolgt die Auswertung. Dabei bedeutet 0 % ein Wirkungsgrad, der demjenigen der Kontrolle entspricht, während ein Wirkungsgrad von 100 % bedeutet, dass kein Befall beobachtet wird.

Another data set relates to PHBPU. As to the kind of experiment: Herbicidal action, test type PO. Format: in vivo. As to conditions: TEST-TYP PO, 80 G/HA. An excerpt:
(§2) Die herbizide Wirkung der Verbindungen der allgemeinen Formel (I) wird in den nachfolgenden Tabellen näher erläutert.

For data set [2], the system named is VERPE. As to the kind of experiment: Herbicidal action, test type PO. Type of data set: in vivo. As to conditions: TEST-TYP PO, 80 G/HA.
Description: as §2

The subject of another data set is Venturia inaequalis. As to the kind of experiment: Venturia test (apple) / protective. Format: in vivo. The settings on record: 100ppm active ingredient, evaluated 10 days after inoculation.
Description: as §1
Zur Prüfung auf protektive Wirksamkeit werden junge Pflanzen mit der Wirkstoffzubereitung in der angegebenen Aufwandmenge besprüht. Nach Antrocknen des Spritzbelages werden die Pflanzen mit einer wäßrigen Konidiensuspension des Apfelschorferregers Venturia inaequalis inokuliert und verbleiben dann 1 Tag bei ca. 20°C und 100% relativer Luftfeuchtigkeit in einer Inkubations-kabine.
Die Pflanzen werden dann im Gewächshaus bei ca. 21°C und einer relativen Luftfeuchtigkeit von ca. 90% aufgestellt.
10 Tage nach der Inokulation erfolgt die Auswertung. Dabei bedeutet 0% ein Wirkungsgrad, der demjenigen der Kontrolle entspricht, während ein Wirkungsgrad von 100% bedeutet, daß kein Befall beobachtet wird.

Data set [3] relates to AMARE. As to the kind of experiment: Herbicidal action, test type PE. Type of data set: in vivo. As to conditions: Test-Typ PE, 320 G/HA.
Description: as §2

In a further data set the test system is ECHCG. As to the kind of experiment: Herbicidal action, test type PE. Format: in vivo. The settings on record: Test-Typ PE, 320 G/HA.
Description: as §2

A further data set deals with DIGSA. Kind of data set: Herbicidal action, test type PE. Format: in vivo. As to conditions: Test-Typ PE, 320 G/HA.
Description: as §2

For data set [4], the system named is SETVI. As to the kind of experiment: Herbicidal action, test type PE. Format: in vivo. As to conditions: Test-Typ PE, 320 G/HA.
Description: as §2

The test system of data set [5] is VERPE. Kind of data set: Herbicidal action, test type PE. Format: in vivo. As to conditions: Test-Typ PE, 320 G/HA.
Description: as §2

Data set [6] has as its system Myzus persicae. As to the kind of experiment: Myzus test; oral (MYZUPE). Format: in vivo. As to conditions: 100 g/ha; oral uptake by sucking; 100 % = all aphids killed. The text has this: Zur Herstellung einer zweckmäßigen Wirkstoffzubereitung vermischt man 1 Gewichtsteil Wirkstoff mit den angegebenen Mengen Lösungsmittel und verdünnt das Konzentrat mit Wasser auf die gewünschte Konzentration.
Gefäße werden mit allen Stadien der Grünen Pfirsichblattlaus (Myzus persicae) besetzt, durch saugen an der Wirkstoffzubereitung der gewünschten Konzentration wird behandelt.
(§3) Nach der gewünschten Zeit wird die Wirkung in % bestimmt. Dabei bedeutet 100 %, dass alle Blattläuse abgetötet wurden; 0 % bedeutet, dass keine Blattläuse abgetötet wurden.

In data set [7] the test system is Myzus persicae. Kind of data set: Myzus test (MYZUPE spray treatment). Type of data set: in vivo. As to conditions: 500 g/ha; spray on Chinese cabbage leaf discs (Brassica pekinensis); 100 % = all aphids killed.
Description: (§4) Zur Herstellung einer zweckmäßigen Wirkstoffzubereitung vermischt man 1 Gewichtsteil Wirkstoff mit den angegebenen Mengen Lösungsmittel und Emulgator und verdünnt das Konzentrat mit emulgatorhaltigem Wasser auf die gewünschte Konzentration.
Chinakohlblattscheiben (Brassica pekinensis), die von allen Stadien der Grünen Pfirsichblattlaus (Myzus persicae) befallen sind, werden mit einer Wirkstoffzubereitung der gewünschten Konzentration gespritzt.
as §3

In the next data set the test system is Meloidogyne incognita. As to the kind of experiment: Meloidogyne test (MELGIN). As to conditions: 20 ppm; sand with lettuce seeds; 100 % = no galls. Format: in vivo.
Description: as §1
Gefäße werden mit Sand, Wirkstofflösung, Meloidogyne incognita-Ei-Larvensuspension und Salatsamen gefüllt. Die Salatsamen keimen und die Pflänzchen entwickeln sich. An den Wurzeln entwickeln sich die Gallen.
Nach der gewünschten Zeit wird die nematizide Wirkung an Hand der Gallenbildung in % bestimmt. Dabei bedeutet 100 %, dass keine Gallen gefunden wurden; 0 % bedeutet, dass die Zahl der Gallen an den behandelten Pflanzen der der unbehandelten Kontrolle entspricht.

In data set [8] the test system is AMARE. As to the kind of experiment: Herbicidal action, test type PO. The settings on record: TEST-TYP PO, 80 G/HA. Type of data set: in vivo.
Description: as §2

Data set [9] relates to SETVI. Kind of data set: Herbicidal action, test type PO. Type of data set: in vivo. The settings on record: TEST-TYP PO, 80 G/HA.
Description: as §2

For a further data set, the system named is Tetranychus urticae. Kind of data set: Tetranychus test, OP-resistant (TETRUR spray treatment). Type of data set: in vivo. As to conditions: 500 g/ha; spray on bean leaf discs (Phaseolus vulgaris); 100 % = all spider mites killed.
Description: as §4
Bohnenblattscheiben (Phaseolus vulgaris), die von allen Stadien der Gemeinen Spinnmilbe (Tetranychus urticae) befallen sind, werden mit einer Wirkstoffzubereitung der gewünschten Konzentration gespritzt.
Nach der gewünschten Zeit wird die Wirkung in % bestimmt. Dabei bedeutet 100 %, dass alle Spinnmilben abgetötet wurden; 0 % bedeutet, dass keine Spinnmilben abgetötet wurden.

For another data set, the system named is VIOTR. Kind of data set: Herbicidal action, test type PE. Format: in vivo. The settings on record: Test-Typ PE, 320 G/HA.
Description: as §2

The next data set is described as follows: physchem. As to conditions: pH 2.3.

Description for physchem: Die Bestimmung erfolgt im sauren Bereich bei pH 2.3 mit 0,1% wässriger Phosphorsäure und Acetonitril als Eluenten linearer Gradient von 10% Acetonitril bis 95% Acetonitril.

With `CCN(C)C=Nc1cnc(-c2ccc(Cl)c(C(F)(F)F)c2)cc1C` [Beispiel 15], the Wirkungsgrad (in [1]; with Botrytis cinerea; in the data set on Venturia inaequalis) was not below 70% throughout. Also, the “herbizide Wirkung PHBPU” value with PHBPU is reported as 90. For the same compound, the entries for the “herbizide Wirkung VERPE” value in the data set on VERPE [2] and with VERPE [5] were 80 and 90, respectively. Besides, in the data set with AMARE [3], the “herbizide Wirkung AMARE” value was found to be 90. The “herbizide Wirkung ECHCG” value in the data set with ECHCG amounted to 90. The “herbizide Wirkung DIGSA” value in the data set on DIGSA was 100. In the data set with SETVI [4], the “herbizide Wirkung SETVI” value worked out at 100.

Take `CCN(C)C=Nc1cnc(-c2cccnc2)cc1C` [Beispiel 95]: the Wirkung with Myzus persicae [6] and in the data set with Myzus persicae [7] was not below 80% each time.

Turning to `Cc1cc(-c2ccc(C(F)(F)F)cc2)ncc1N=CN(C)C` [Beispiel 100], the “nematizide Wirkung an Hand der Gallenbildung” value in the data set with Meloidogyne incognita was not below 80%.

Take `Cc1cc(-c2ccc(C(F)(F)F)c(Cl)c2)ncc1N=CN(C)C` [Beispiel 105]: in the data set on Meloidogyne incognita, the “nematizide Wirkung an Hand der Gallenbildung” value is not below 80%. Besides, the “herbizide Wirkung AMARE” value with AMARE [8] was determined as 80. The “herbizide Wirkung SETVI” value with SETVI [9] and in the data set with SETVI [4] was 80 throughout. Besides, the results for the “herbizide Wirkung VERPE” value in the data set with VERPE [2] and in the data set on VERPE [5] were 80 and 100, respectively. Besides, the Wirkung in the data set with Tetranychus urticae is reported as not below 80%. Also, in the data set on ECHCG, the “herbizide Wirkung ECHCG” value is reported as 80. For the same compound, in the data set with VIOTR, the “herbizide Wirkung VIOTR” value is given as 90.

As a reminder, the chromatographic logP is lipophilicity estimated from chromatographic retention. `CCN(C=Nc1cnc(-c2ccc(Cl)c(C(F)(F)F)c2)cc1C)CC` [Beispiel 119] showed a chromatographic logP in “physchem” of 1.92. Besides, the “herbizide Wirkung AMARE” value in the data set with AMARE [3] came to 80. In addition, in the data set on SETVI [4], the “herbizide Wirkung SETVI” value is given as 100.

In the case of `Cc1cc(Cl)ncc1N=CN(C)C` [Beispiel 131], the Wirkungsgrad in the data set with Botrytis cinerea was not below 70%.

Take `CCN(C)C=Nc1cnc(-c2ccc(C(C)(C)C)cc2)cc1C` [Beispiel 142]: the Wirkungsgrad (in data set [1]; in the data set on Botrytis cinerea) was not below 70% each time.

For the compound `Cc1cc(-c2ccc(C(C)(C)C)cc2)ncc1N=CN1CCCCC1` [Beispiel 150], the Wirkungsgrad in the data set on Botrytis cinerea and with Venturia inaequalis was not below 70% throughout.

In turn, `Cc1cc(-c2cc(C(F)(F)F)cc(C(F)(F)F)c2)ncc1N=CN(C)C` [Beispiel 172] gave a Wirkung in the data set on Myzus persicae [6] not below 80%.

For `CCN(C)C=Nc1cnc(-c2ccc(C3CCCCC3)cc2)cc1C` [Beispiel 209], the Wirkungsgrad in the data set on Botrytis cinerea and with Venturia inaequalis was not below 70% in each case.

Take `Cc1cc(-c2ccc(F)nc2)ncc1N=CN(C)C` [Beispiel 234]: the “nematizide Wirkung an Hand der Gallenbildung” value with Meloidogyne incognita is not below 80%. The Wirkung with Myzus persicae [6] and in the data set with Myzus persicae [7] was not below 80% in each case.

Regarding `CCN(C)C=Nc1cnc(-c2ccc(OC(F)(F)F)c(F)c2)cc1C` [Beispiel 247], the “nematizide Wirkung an Hand der Gallenbildung” value in the data set with Meloidogyne incognita is given as not below 80%. The Wirkung in the data set on Myzus persicae [6] was not below 80%.

For `Cc1cc(-c2cccnc2)ncc1N=CN(C)C` [Beispiel 270], the Wirkung with Myzus persicae [6] and in the data set on Myzus persicae [7] was not below 80% in each case.

Take `Cc1cc(-c2ccc(OC(F)(F)F)cc2)ncc1N=CN(C)C` [compound 113]: the chromatographic logP in “physchem” was determined as 1.25.

In turn, `CCN(C)C=Nc1cnc(-c2ccc(OC(F)(F)F)cc2)cc1C` [compound 114] had a chromatographic logP in “physchem” of 1.34.

For `Cc1cc(-c2ccc([Si](C)(C)C)cc2)ncc1N=CN(C)C` [compound 115], the chromatographic logP in “physchem” amounted to 1.51.

`CCN(C)C=Nc1cnc(-c2ccc([Si](C)(C)C)cc2)cc1C` [compound 116] registered a chromatographic logP in the data set “physchem” of 1.6.

The compound `Cc1cc(-c2ccc(Cl)c(C(F)(F)F)c2)ncc1N=CN1CCCC1` [compound 117] came in with a chromatographic logP in “physchem” of 1.75.

In “physchem”, `CCCCN(C=Nc1cnc(-c2ccc(Cl)c(C(F)(F)F)c2)cc1C)CCCC` [compound 118] yielded a chromatographic logP of 2.49.

In “physchem”, `Cc1cc(-c2ccc(Cl)c(C(F)(F)F)c2)ncc1N=CN(C(C)C)C(C)C` [compound 120] had a chromatographic logP of 2.23.

In turn, `Cc1cc(-c2ccc(F)c(C(F)(F)F)c2)ncc1N=CN1CCCC1` [compound 121] came in with a chromatographic logP in the data set “physchem” of 1.85.

For the compound `Cc1cc(-c2ccc(F)c(C(F)(F)F)c2)ncc1N=CN(C(C)C)C(C)C` [compound 122], the chromatographic logP in “physchem” turned out to be 1.9.

In the case of `CC(=Nc1cnc(-c2ccc(Cl)c(C(F)(F)F)c2)cc1C)N(C)C` [compound 123], in the data set “physchem”, the chromatographic logP was 1.03.

In turn, `CC(=Nc1cnc(-c2ccc(Cl)c(C(F)(F)F)c2)cc1C)N1CCCCC1` [compound 124] yielded a chromatographic logP in “physchem” of 0.94. This chromatographic logP and that of the compound before are within 0.2 log units of each other.

Values taken from patent EP2264011A1, “Heteroarylamidines and their use as fungicides” (Bayer CropScience AG, priority 2009, dated 2010).
